Data on eight molecules can be found in PMC10859675, “Short‐chain mono‐carboxylates as negative modulators of allosteric transitions in Gloeobacter violaceus ligand‐gated ion channel, and impact of a pre‐β5 strand (Loop Ω) double mutation on crotonate, not butyrate effect” (Physiological Reports, 2024).

In experiment [1] the target is T1, WT GLIC (Gloeobacter violaceus, UniProt Q7NDN8).
T1 construct: expressed in transfected cells; host or cells: tk-ts13 cells, GLIC DNA in pMT3 vector
T1 sequence (Q7NDN8 44-359): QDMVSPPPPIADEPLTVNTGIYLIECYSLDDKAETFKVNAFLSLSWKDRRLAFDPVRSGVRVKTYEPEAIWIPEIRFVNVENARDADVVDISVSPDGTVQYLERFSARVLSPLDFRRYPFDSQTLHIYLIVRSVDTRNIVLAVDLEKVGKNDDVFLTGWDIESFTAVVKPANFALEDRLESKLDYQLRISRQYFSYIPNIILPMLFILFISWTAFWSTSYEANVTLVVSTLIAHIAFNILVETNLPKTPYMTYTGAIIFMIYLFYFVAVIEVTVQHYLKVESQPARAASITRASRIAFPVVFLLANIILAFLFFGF
The experiment is described as follows: Whole-cell patch-clamp, protocol with pre-stimulation at low pHo, WT GLIC expressed in tk-ts13 cells. The experiment is classed as cell-based. The note with it: for effect on GLIC current: 5 or 10 mM, pre-stimulation at pHo 5.0, 2–5 cells each; for current in the presence of mono-CBX, % of control: 1 mM at pHo 5.0, WT sample of Figure 7, mean; for current in the presence of mono-CBX, % of control (100*I CBX/I CONTROL): 1 mM at pHo 5.0, WT sample of Figures 4 and 5, mean. The method, then:
We give here the main points and some differences.
All solutions were prepared from the acid forms of the buffers/acido‐basic compounds (BAPTA, HEPES, MES, CBX, etc.). Stock 100 mmol/L (mM) mono‐CBX water solutions were prepared directly at pH 5 (NaOH/HCl), aliquoted and kept at −20°C.
Fit of concentration‐effect curves. For proton activation curves, the peak value (Ipk[pHo]; inward current value at maximal absolute value) within 30 s was considered (y), and a plot against H^+ activity value (x) was fitted with a 3‐parameter Hill equation: y=ymax*1/1+EC50nH/x^nH , giving I max, EC50, and pH50 = −log(EC50). For potentiation/inhibition, data for [percent of control current] in the presence of the compound (y = 100*I CBX/I CONTROL) to [compound concentration value] […] For most compounds are presented: a fit of the mean of data (Graphs), and the mean ± standard deviation (SD) of data from individual cells (values in text).

The target in experiment [2] is T1, WT GLIC. The experiment is described as follows: Whole-cell patch-clamp, direct protocol (pHo jump and compound applied simultaneously), WT GLIC in tk-ts13 cells. The experiment is classed as cell-based. The note with it: 1 mM at pHo 5.0, direct protocol, individual cells; for ratio of peak current values in the presence and in the absence of compound (Ipk[CBX@5.0]/Ipk[pHo 5.0]): first CBX application; for current decay (h) time constant: m^4 h fit. The text has this:
A direct protocol, where a pHo‐jump (from control pHo 7.5) and compound addition are applied simultaneously, was first used to examine the influence of saturated, short‐chain mono‐CBX compounds on low pHo‐induced GLIC current (Figure 1a).
For orientation: Patch clamp records ionic current or voltage across a cell membrane.

The target of the next experiment is T2, GLIC E104Q (Gloeobacter violaceus, UniProt Q7NDN8, E146Q).
T2 construct: expressed in transfected cells; host or cells: tk-ts13 cells, pMT3 vector
T2 sequence (Q7NDN8 44-359 E146Q): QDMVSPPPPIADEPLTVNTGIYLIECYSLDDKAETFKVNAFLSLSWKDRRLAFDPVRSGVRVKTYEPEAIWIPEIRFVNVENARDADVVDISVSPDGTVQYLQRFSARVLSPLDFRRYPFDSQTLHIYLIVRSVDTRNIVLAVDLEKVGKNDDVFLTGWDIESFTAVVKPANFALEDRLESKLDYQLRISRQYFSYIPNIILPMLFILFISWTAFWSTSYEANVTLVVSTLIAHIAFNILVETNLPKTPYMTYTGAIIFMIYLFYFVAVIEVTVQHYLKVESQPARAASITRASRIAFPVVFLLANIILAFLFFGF
The experiment is classed as cell-based. The note with it: 1 mM at pHo 5.0, mean. On the procedure: (§1) ACET (Figure 4) and the 4‐carbon compounds BUTYR and CROTON (Figure 5) were tested on the CBX‐pockets single mutants, at 1 mM with pre‐stimulation at pHo 5.0.

Another experiment addresses T3, GLIC E177A (Gloeobacter violaceus, UniProt Q7NDN8, E219A).
T3 construct: expressed in transfected cells; host or cells: tk-ts13 cells, pMT3 vector
The experiment is classed as cell-based. Particulars: 1 mM at pHo 5.0, mean. On the procedure: as §1

The target in the next experiment is T4, GLIC E181A (Gloeobacter violaceus, UniProt Q7NDN8, E223A).
T4 construct: expressed in transfected cells; host or cells: tk-ts13 cells, pMT3 vector
T4 sequence (Q7NDN8 44-359 E223A): as the sequence (Q7NDN8 44-359 E146Q) above, with Q103E, E180A counted along it
The experiment is classed as cell-based. The note with it: 1 mM at pHo 5.0, versus WT GLIC. The method, then:
as §1

The target of another experiment is T5, GLIC R105A (Gloeobacter violaceus, UniProt Q7NDN8, R147A).
T5 construct: expressed in transfected cells; host or cells: tk-ts13 cells, pMT3 vector
T5 sequence (Q7NDN8 44-359 R147A): as the sequence (Q7NDN8 44-359 E146Q) above, with Q103E, R104A counted along it
The experiment is classed as cell-based. Particulars: 1 mM at pHo 5.0, mean. The method, then:
as §1

The target in the next experiment is T6, GLIC R77A (Gloeobacter violaceus, UniProt Q7NDN8, R119A).
T6 construct: expressed in transfected cells; host or cells: tk-ts13 cells, pMT3 vector
T6 sequence (Q7NDN8 44-359 R119A): as the sequence (Q7NDN8 44-359 E146Q) above, with R76A, Q103E counted along it
The experiment is classed as cell-based. The note with it: 1 mM at pHo 5.0, mean. The method, then: as §1

The target of another experiment is T7, GLIC Y102A (Gloeobacter violaceus, UniProt Q7NDN8, Y144A).
T7 construct: expressed in transfected cells; host or cells: tk-ts13 cells, pMT3 vector
T7 sequence (Q7NDN8 44-359 Y144A): as the sequence (Q7NDN8 44-359 E146Q) above, with Y101A, Q103E counted along it
The experiment is classed as cell-based. Particulars: 1 mM at pHo 5.0, mean. The method, then: as §1

The target of a further experiment is T8, GLIC D86A‐D88A (Gloeobacter violaceus, UniProt Q7NDN8, D128A/D130A).
T8 construct: expressed in transfected cells; host or cells: tk-ts13 cells, pMT3 vector
T8 sequence (Q7NDN8 44-359 D128A/D130A): as the sequence (Q7NDN8 44-359 E146Q) above, with D85A, D87A, Q103E counted along it
The experiment is classed as cell-based. The note with it: 1 mM at pHo 5.0, Figure 7 sample, mean. The text has this:
(§2) Compound modulation of the D86A‐D88A pre‐β5 variant (AA), N152A mutant and WT GLIC, was investigated in the protocol with pre‐stimulation at pHo 5.0 (Figure 7).

The target in the next experiment is T9, GLIC N152A (Gloeobacter violaceus, UniProt Q7NDN8, N194A).
T9 construct: expressed in transfected cells; host or cells: tk-ts13 cells, pMT3 vector
T9 sequence (Q7NDN8 44-359 N194A): as the sequence (Q7NDN8 44-359 E146Q) above, with Q103E, N151A counted along it
The experiment is classed as cell-based. The note with it: 1 mM at pHo 5.0, mean.
From the text: as §2

Experiment [3] has as its target T10, GLIC R133A (Gloeobacter violaceus, UniProt Q7NDN8, R175A). The experiment is classed as cell-based. On the set-up: expressed in transfected cells; host or cells: tk-ts13 cells, pMT3 vector. Particulars: 1 mM at pHo 5.0, mean. The method, then:
as §1

For experiment [4], the target named is T10, GLIC R133A. The experiment is described as follows: Whole-cell patch-clamp, direct protocol, GLIC R133A.
A further experiment has as its target GLIC AA‐N152A (Gloeobacter violaceus, UniProt Q7NDN8, D128A/D130A/N194A). The experiment is described as follows: Whole-cell patch-clamp with pre-stimulation, GLIC AA-N152A. Particulars: CROTON 1 mM at pHo 5.0, single exponential fit.
The test system of experiment [5] is GLIC [AA + CBX‐pocket] triple mutants. In words: Whole-cell patch-clamp with pre-stimulation, [AA + CBX-pocket] triple mutants. Particulars: 1 mM at pHo 5.0, compared to AA double mutant.
Experimental: (§3) Nuclear injection of DNA was done on the day of reception of oocytes. […] Transfection was done within 24 h after cell seeding, using the DNA‐calcium phosphate co‐precipitation method. GFP‐positive cells were used for electrophysiology 1–2 days after transfection (tk‐ts13 cells), or 1–3 days after nuclear injection (oocytes). A mixture of DNAs coding for GLIC and GFP in separate pMT3 vectors was used, with amounts of [2 + 0.2] μg per 35 mm dish for transfections, or [0.04 + 0.02] g/L in water for injections.
(§4) The intracellular pipette solution was composed of (in mM): CsCl 150, MgCl2 1, HEPES 10, BAPTA 10, CsOH to pH 7.3. […] Lower pH values were reached by adding to this solution HCl 2 M in water (and more pH 7.5 solution to return pH up if necessary). […] A 3 M KCl, 5 g/L agar bridge was used to connect the reference electrode to the dish solution. […] Electric current flowing through the membrane from extracellular to intracellular face (inward current) is counted negative, and represented downwards in the figures. […]
(§5) Positive/negative modulation was evaluated as current in the presence of the compound, in percent of the control GLIC current value measured immediately before compound application (with a correction for GLIC current decay only for small inhibitions). […]
The mark [6] stands for this setting: pHo 5.5, mean ± SD, read-out: IC50 (from individual cells).
Setting [7] is: pHo 5.0, mean ± SD, read-out: IC50 (from individual cells).

“And” between values parts separate entries of the source, which are not always exact repeats. Equal values may be shown once. Read-outs that look alike come from different tables or passages of the source.

T10 sequence (Q7NDN8 44-359 R175A): as the sequence (Q7NDN8 44-359 E146Q) above, with Q103E, R132A counted along it
T3 sequence (Q7NDN8 44-359 E219A): as the sequence (Q7NDN8 44-359 E146Q) above, with Q103E, E176A counted along it
Chain of GLIC AA‐N152A (Q7NDN8 44-359 D128A/D130A/N194A): as the sequence (Q7NDN8 44-359 E146Q) above, with D85A, D87A, Q103E, N151A counted along it
Experimental for GLIC AA‐N152A: as §3, §4, §5

`C[C@H](N)C(=O)O` [(L)‐alanine]: at WT GLIC [1], the “effect on GLIC current” value is listed as “no effect”.

As a reminder, the IC50 is the midpoint of a concentration-inhibition curve. For `CC(=O)O` [ACET, Ethanoic acid], the “current in the presence of mono-CBX, % of control” value is on record as 12.2 % of control on WT GLIC [1]; 47.6 % of control on GLIC E104Q; 14.9 % of control on GLIC E177A; 17.1 % of control at GLIC R105A; 71.4 % of control at GLIC R77A; 16.1 % of control on GLIC Y102A. Further, the entries for the “current in the presence of mono-CBX, % of control” value at GLIC D86A‐D88A, on GLIC N152A and at GLIC R133A [3] were 14.6 % of control, 9.7 % of control and 22.7 % of control, respectively. In addition, the “current in the presence of mono-CBX, % of control (100*I CBX/I CONTROL)” value (from here on “current … % of control (100*I CBX/I CONTROL)”) at WT GLIC [1] was 12.2 % of control. For the same molecule, the “activity on GLIC current (NAM effect)” value on WT GLIC [1] (1 mM with pre-stimulation, pHo 5.0) is listed as “active”. Also, the “GLIC current in the presence of ACET, % of control” value at WT GLIC [1] (ACET 1 mM at pHo 5.0, 50-180 s application, individual cells) was 17 % of control and 6.6 % of control and 5.5 % of control and 17.2 % of control and 11.3 % of control. The “reversibility of negative modulation (slow components)” value on WT GLIC [1] (after compound wash-out) lay in the range of 3 to 10 min. The “slope parameter (fit of the mean value)” value on WT GLIC [1] (pHo 5.5, 10 cells) was determined as 1.6. The IC50 at WT GLIC [1] (pHo 5.5, 10 cells, read-out: IC50 (sigmoid fit of the mean value)) was found to be 136 µM; on WT GLIC [1] (setting [6]), 128 µM. Further, on WT GLIC [2], the “ratio of peak current values in the presence and in the absence of compound (Ipk[CBX@5.0]/Ipk[pHo 5.0])” value (shortened to “ratio of peak current values”) is 0.400 and 0.424 and 0.533 and 0.575. Also, the “current decay (h) time constant” value at WT GLIC [2] is 2.90 s and 3.13 s and 3.33 s and 5.62 s. In addition, the “impact of the E181A substitution on the NAM effect” value (“impact of the E181A substitution” below) on GLIC E181A is listed as “no impact”.

In the case of `CCCC(=O)O` [BUTYR, Butanoic acid], on WT GLIC [1], the “current in the presence of mono-CBX, % of control” value is given as 13.6 % of control and the “current … % of control (100*I CBX/I CONTROL)” value is reported as 10.3 % of control. In addition, the IC50 at WT GLIC [1] (setting [7]) is 219 µM. The “slope parameter nH (from individual cells)” value at WT GLIC [1] (pHo 5.5, mean ± SD) came out at 1.5. Moreover, the IC50 on WT GLIC [1] (setting [6]) turned out to be 150 µM. Also, on WT GLIC [2], the “ratio of peak current values” value is 0.257 and 0.332; the “current decay (h) time constant” value is 0.541 s and 0.304 s. Further, at GLIC E181A, the “impact of the E181A substitution” value is listed as “no impact”. The peak current inhibition entry on GLIC R133A [4] is “almost fully abolished”.

Take `O=C(O)/C=C/c1ccc(O)c(O)c1` [CAFFE, caffeic acid]: at WT GLIC [1] (0.1 mM at pHo 5.0, mean), the “current in the presence of CAFFE, % of control” value is 17.4 % of control.

As to `C/C=C/C(=O)O` [CROTON, Butenoic acid], at WT GLIC [1], the “current in the presence of mono-CBX, % of control” value is 13.6 % of control and the “current … % of control (100*I CBX/I CONTROL)” value is on record as 11.9 % of control. Also, the IC50 on WT GLIC [1] (setting [7]) was 191 µM. On WT GLIC [2], the “ratio of peak current values” value was 0.228 and 0.244; the “current decay (h) time constant” value is 0.695 s and 0.583 s. The “impact of the E181A substitution” value at GLIC E181A is listed as “no impact”. In addition, the peak current inhibition entry at GLIC R133A [4] is “almost fully abolished”. For the same molecule, the “decay constant tau of PAM ratio versus control current amplitude” value at GLIC AA‐N152A is recorded as 800 nA. Also, the “CROTON PAM effect after adding a binding pocket mutation to AA (excluding AA‐N152A)” value in experiment [5] was “fully abolished”.

`CC(O)C(=O)O` (stereo not drawn) [DL‐lactate]: the “effect on GLIC current” value on WT GLIC [1] is “no effect”.

For the molecule `O=C(O)/C=C/C(=O)O` [FUMAR, (E)‐but‐2‐enedioic acid], the “current in the presence of di-CBX, % of control” value on WT GLIC [1] (10 mM at pHo 5.0, mean) was 194 % of control.

For the molecule `NCCCC(=O)O` [GABA, γ‐amino butyrate], the “effect on GLIC current” value at WT GLIC [1] is recorded as “no effect”.
